Measured values from US8809532B2, “Aza-ring fused indole and indoline derivatives” (AbbVie Inc., priority 2009, dated 2014).

Legend:
[1] = system: SK-N-SH human neuroblastoma cells; assay: Serum Deprivation/JC-1 Mitochondrial Membrane Potential (MMP) Assay; format: cell-based; conditions: for Emax: 18 h, percent maximal JC-1 ratio normalized to the peak value for 10 μM dimebolin, read-out: JC-1 max %; for EC50: JC-1 ratio after ~18 hours serum deprivation, single curve fit to mean data of n=2-3
Procedure: SK—N—SH human neuroblastoma cells obtained from American Type Culture Collection (Rockville, Md.) were maintained in the log phase of growth in Minimal Essential Media (MEM), 10% heat inactivated fetal calf serum and 100 units/mL antibiotic-antimycotic (AA). Cells were cultured and maintained in a humidified incubator at 37° C. under 5% CO2 and 95% air. Cells were trypsinized (0.25%) and subcultured every 3 days and used from 15-18 passages. All cell culture supplies were obtained from Invitrogen (Carlsbad, Calif.).
SK—N—SH cells were plated 2-3 days in advance at a concentration of 50,000 cells/well onto collagen coated black-walled 96 well plates (Becton-Dickinson, Bedford, Mass.) in a total volume of 200 μL. On day of experimental treatment, the media containing serum was aspirated from each well and rinsed once with MEM/1% AA without serum. The cells then were incubated overnight in 100 μL of MEM/1% AA (no serum) with and without dimebolin or novel chemical entities overnight for ˜18 hours. The following day, JC-1 dye (5,5′,6,6′-tetrachloro-1,1′,3,3′-tetraethylbenzimidazolcarbocyanide) was diluted 1:10 into MEM media according to the JC-1 Mitochondrial Membrane Potential Assay Kit: (Cayman Chemical Company, Ann Arbor, Mich.) and then 10 μL of the JC-1 dye solution was added to each well. The plates were centrifuged for 5 minutes at 400×g at room temperature followed by 40 minute incubation at 37° C. The plates were washed twice with 200 μL of provided Assay Buffer followed an addition of 100 μL of Assay Buffer to each well. The plates were read with an excitation and emission of 560 nm and 595 nM for red fluorescence and with an excitation and emission of […] and 535 nM for green fluorescence to determine the final JC-1 value taking the red to green fluorescence ratio. This assay is based on change in mitochondrial membrane potential (MMP) using this lipophilic cationic dye, JC-1, by monitoring the changes in the ratio of red to green fluorescence as the MMP depolarizes. This change in MMP reflects the health of the cell with healthy, viable cells have a high JC-1 ratio and high MMP whereas apoptotic, unhealthy cells have a low JC-1 ratio or low MMP.
For the ability of compounds to reverse the stress due to serum deprivation and increase the JC-1 ratio, the percent maximal intensity in JC-1 ratio was normalized to that induced by the peak value for 10 μM dimebolin and plotted against the compound concentration to calculate EC50 values and to control for plate-to-plate variability. Concentration-response data were analyzed using GraphPad Prism (San Diego, Calif.); the EC50 values were derived from a single curve fit to the mean data of n=2-3, in duplicates.
All compounds were dissolved in dimethyl sulfoxide at 10 mM stock solutions and tested at a concentration that the dimethyl sulfoxide levels never exceeded 1%.

[2] = system: primary postnatal (P0) cortical cells; assay: Neurite Outgrowth Assay (Aβ1-42 neuroprotection, high content microscopy); format: cell-based, rat; conditions: n = 3; for % Attenuation Effect of 5 μM Aβ 1-42: 5 μM Aβ1-42; for Emax: Rattus norvegicus, maximum response relative to 300 nM dimebolin, at the noted concentration, read-out: Maximum Effect (of % 300 nM Dimebolin) at Concentration; for Concentration (nM) at which the Maximum Effect was seen: test compound concentration of the maximum response
Procedure: In addition to PC12 cells, other cellular model systems may also be used. Rat cortical cells can be cultured and prepared for high content microscopy analysis as previously described (Hu, M.; Schurdak, M. E.; et al. High content screen microscopy analysis of Aβ1-42-induced neurite outgrowth reduction in rat primary cortical neurons: Neuroprotective effects of α7 neuronal nicotinic acetylcholine receptor ligands. Brain Res. 2007, 1151, 227-235.). Briefly, cortical cell cultures are plated at density of 5×10^5 cells/mL onto poly-D-lysine coated 96-well plates and maintained in a cell incubator at 37° C. with 5% CO2. Experiments are performed using 6-7 day-old cortical cell cultures by treating with test compounds. In some experiments, the effect of test compounds on reversing Aβ toxicity can also be measured (Hu, M.; Schurdak, M. E.; et al. High content screen microscopy analysis of Aβ1-42-induced neurite outgrowth reduction in rat primary cortical neurons: Neuroprotective effects of α7 neuronal nicotinic acetylcholine receptor ligands. Brain Res. 2007, 1151, 227-235.). For assessment of neuroprotective effects, cells are first pretreated with test compounds for about 5 hours. Medium is then replaced with the medium containing freshly prepared about 5 μM Aβ1-42 peptide in the absence or presence of the test compounds for 3 days. The untreated group contains the same percentage of vehicle (DMSO) as in the treatment groups. Cells are fixed with approximately 4% paraformaldehyde containing 0.5% Hoechst 33342 for about 15 minutes, followed by three washes using PBS (pH 7.4) and blocked with 10% donkey serum in PBS for 1 hour at room temperature. The cells are then incubated overnight at about 4° C. with mouse anti-tubulin monoclonal antibody (1:100) for staining neurons and rabbit anti-GFAP (1:1000) for staining glia. In the next day, cells are incubated with FITC-labeled anti-mouse and TRITC-labeled anti-rabbit antibodies (1:1000) for about 1 hour at room temperature. After fixing and staining the cells, nuclei (360/400 nm excitation and 465/300 nm emission filters), neuron (475/350 nm excitation and 535/400 nm emission filters) and glial cell (535 nm excitation and 610 nm emission filters) images are collected using the ImageExpress Micro automatic fluorescent microscopy system (Molecular Devices, Sunnyvale, Calif.) employing a Nikon 10x Plan Fluor objective and Cool Snap HQ CCD camera. The Neurite Outgrowth module in the MetaMorph Imaging software can be used to automatically count total cell number, number of neuron cells, and the extent of neurite outgrowth.
The neurite outgrowth observed for untreated cells is set to 100% response. Treatment of cells with compounds prior to and concomitantly with Aβ1-42 gave a neuroprotective effect with neurite outgrowth maintained or enhanced relative to untreated cells.

[3] = system: primary rat cortical neurons; conditions: comparable to that evoked by BDNF; cited from earlier work
[4] = system: patients with mild-to-moderate Alzheimer's disease; conditions: cited from earlier work

Compound	Emax [1] [%]	EC50 [1] [µM]	other results
Cc1ccc(CCc2cccc3c4c([nH]c23)CCNC4)cn1 [Example 7, 6-[2-(6-methylpyridin-3-yl)ethyl]-2,3,4,5-tetrahydro-1H-pyrido[4,3-b]indole]	88	4.72	–
CN1CCc2[nH]c3c(C#Cc4cccnc4)cccc3c2C1 [Example 4, 2-methyl-6-(pyridin-3-ylethynyl)-2,3,4,5-tetrahydro-1H-pyrido[4,3-b]indole]	199	8.93	–
Cc1ccc(/C=C/c2cccc3c2N[C@@H]2CCN(C)C[C@H]32)cn1 (relative stereo) [Example 9, (cis)-2-methyl-6-[(E)-2-(6-methylpyridin-3-yl)vinyl]-2,3,4,4a,5,9b-hexahydro-1H-pyrido[4,3-b]indole]	161	7.53	–
Cc1ccc(C#Cc2cccc3c4c([nH]c23)CCN(C)C4)cn1 [Example 2, 2-methyl-6-[(6-methylpyridin-3-yl)ethynyl]-2,3,4,5-tetrahydro-1H-pyrido[4,3-b]indole]	176	10.8	% Attenuation Effect of 5 μM Aβ 1-42 [2]: 57 (n = 3) %; Emax [2]: 129%; Concentration (nM) at which the Maximum Effect was seen [2]: 300 nM
CCNC(=O)N1CCc2[nH]c3c(/C=C/c4ccc(C)nc4)cccc3c2C1 [Example 11, N-ethyl-6-[(E)-2-(6-methylpyridin-3-yl)vinyl]-1,3,4,5-tetrahydro-2H-pyrido[4,3-b]indole-2-carboxamide]	186	5.1	–
CCOC(=O)N1CCc2[nH]c3c(/C=C/c4ccc(C)nc4)cccc3c2C1 [Example 10, ethyl 6-[(E)-2-(6-methylpyridin-3-yl)vinyl]-1,3,4,5-tetrahydro-2H-pyrido[4,3-b]indole-2-carboxylate]	146	3.24	–
CN1CCc2[nH]c3c(C#Cc4ccncc4)cccc3c2C1 [Example 5, 2-methyl-6-(pyridin-4-ylethynyl)-2,3,4,5-tetrahydro-1H-pyrido[4,3-b]indole]	103	4.32	–
Cc1ccc(CCc2cccc3c4c([nH]c23)CCN(C)C4)cn1 [Example 3, 2-methyl-6-[2-(6-methylpyridin-3-yl)ethyl]-2,3,4,5-tetrahydro-1H-pyrido[4,3-b]indole]	115	7.64	–
Cc1ccc(/C=C/c2cccc3c4c([nH]c23)CCNC4)cn1 [Example 6, 6-[(E)-2-(6-methylpyridin-3-yl)vinyl]-2,3,4,5-tetrahydro-1H-pyrido[4,3-b]indole]	132	4.13	–
CC(=O)N1CCc2[nH]c3c(/C=C/c4ccc(C)nc4)cccc3c2C1 [Example 8, 2-acetyl-6-[(E)-2-(6-methylpyridin-3-yl)vinyl]-2,3,4,5-tetrahydro-1H-pyrido[4,3-b]indole]	155	2.98	–
Cc1ccc2c(c1)c1c(n2CCc2ccc(C)nc2)CCN(C)C1 [dimebolin, 2,3,4,5-tetrahydro-2,8-dimethyl-5-[2-(6-methyl-3-pyridinyl)ethyl]-1H-pyrido[4,3-b]indole]	–	–	neurite outgrowth [3]: increase neurite outgrowth; clinical course of disease, ADAS-Cog over baseline ([4]; 20 mg three times a day (60 mg/day)): significant improvement; most frequent adverse event ([4]; reported clinical studies): dry mouth
Cc1ccc(/C=C/c2cccc3c4c([nH]c23)CCN(C)C4)cn1 [Example 1, 2-methyl-6-[(E)-2-(6-methylpyridin-3-yl)vinyl]-2,3,4,5-tetrahydro-1H-pyrido[4,3-b]indole]	126	4.37	% Attenuation Effect of 5 μM Aβ 1-42 [2]: 39 (n = 3) %; Emax [2]: 111%; Concentration (nM) at which the Maximum Effect was seen [2]: 30 nM
